# Tests used:
# [1] = test system: other PRMTs including PRMT5; conditions: cited from earlier work
# [2] = target: T1, PRMT1 (Homo sapiens, UniProt Q99873); assay: Mass spectrometric; type: biochemical; conditions: inhibitor 0.2 mM; PRMT1 1 μM, SAM 200 μM, H4-20 50 μM, 30°C, 3.5 h
# [3] = target: T1, PRMT1; assay: Radiometric gel assay with [14C]SAM and H4-20, phosphorimaging; type: biochemical; conditions: inhibitor 0.2 mM; PRMT1 0.1 μM, [14C]SAM 20 μM, H4-20 100 μM, 30 min, 30°C
# T1 sequence (Q99873 1-353 isoform Q99873-3, species assumed): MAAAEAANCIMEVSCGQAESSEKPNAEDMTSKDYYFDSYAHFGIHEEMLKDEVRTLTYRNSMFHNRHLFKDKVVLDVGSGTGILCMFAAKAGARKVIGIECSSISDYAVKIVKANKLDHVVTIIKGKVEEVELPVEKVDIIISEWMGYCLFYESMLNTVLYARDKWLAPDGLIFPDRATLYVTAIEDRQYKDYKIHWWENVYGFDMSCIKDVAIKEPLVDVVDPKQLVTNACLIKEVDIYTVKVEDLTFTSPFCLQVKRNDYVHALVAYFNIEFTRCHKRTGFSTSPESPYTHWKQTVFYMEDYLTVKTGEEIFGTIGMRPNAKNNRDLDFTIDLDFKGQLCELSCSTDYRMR
compound,measurement,setting,value
"N=C(N)c1ccc(-c2ccc(-c3ccc(C(=N)N)cc3)o2)cc1 [Furamidine, furamidine]",selectivity over the other PRMTs including PRMT5,[1],> 10 fold
same,methyl transfer reaction H4-20 to dimethyl H4-20 (mass spectrum),[2],incomplete inhibition
same,methylation in radiometric gel assay,[3],methylation was still observed

# Reference: publication PMC5477784 (MedChemComm, 2017)
